Literature values as cited in patent US7226619B1, “Material for controlling diversion of medications” (PharmoRx Inc., priority 2004, dated 2007).
Like-named read-outs stand apart in the source and are kept apart here.

Key:
[1] = molecular target: 2D6 component of the P450 metabolic system (Homo sapiens, UniProt P10635)
[2] = oxymorphone vs parent oxycodone; per Richard B. Patt, American Pain Society Bulletin 6(4), 1996

Chain of 2D6 component of the P450 metabolic system (P10635 whole entry): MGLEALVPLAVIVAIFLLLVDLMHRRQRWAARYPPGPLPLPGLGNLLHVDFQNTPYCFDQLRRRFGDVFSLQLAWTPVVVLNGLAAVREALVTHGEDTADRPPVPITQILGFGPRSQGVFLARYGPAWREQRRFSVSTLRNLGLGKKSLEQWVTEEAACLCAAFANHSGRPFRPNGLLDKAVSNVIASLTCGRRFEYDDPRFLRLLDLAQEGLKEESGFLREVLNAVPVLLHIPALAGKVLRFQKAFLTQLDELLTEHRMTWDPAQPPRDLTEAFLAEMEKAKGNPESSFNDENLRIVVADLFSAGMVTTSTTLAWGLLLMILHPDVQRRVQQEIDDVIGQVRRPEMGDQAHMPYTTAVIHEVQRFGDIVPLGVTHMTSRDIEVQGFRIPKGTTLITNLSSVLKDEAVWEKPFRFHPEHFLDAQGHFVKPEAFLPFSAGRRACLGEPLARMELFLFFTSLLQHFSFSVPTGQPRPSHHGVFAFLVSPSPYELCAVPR

Row | SMILES | inhibitor of 2D6 (in words) [1] | inhibitor of 2D6 (in words) ([1]; qualitative statement, no data) | also measured
1 | COc1ccc(CN(CCN(C)C)c2ccccn2)cc1 [mepyramine] | strong inhibitors | – | –
2 | Fc1ccc([C@@H]2CCNC[C@H]2COc2ccc3c(c2)OCO3)cc1 [paroxetine] | – | strong inhibitors | –
3 | COC(=O)[C@H]1[C@H]2C[C@@H]3c4[nH]c5cc(OC)ccc5c4CCN3C[C@H]2C[C@@H](OC(=O)c2cc(OC)c(OC)c(OC)c2)[C@@H]1OC [reserpine] | strong inhibitors | – | –
4 | CN/C(=N/CCSCc1nc[nH]c1C)NC#N [cimetidine] | strong inhibitors | – | –
5 | C=C[C@H]1C[N@@]2CC[C@H]1C[C@@H]2[C@@H](O)c1ccnc2ccc(OC)cc12 [quinidine] | – | strong inhibitors | –
6 | CN1CC[C@]23c4c5ccc(O)c4O[C@H]2C(=O)CC[C@@]3(O)[C@H]1C5 [oxymorphone] | – | – | effectiveness as an agonist relative to oxycodone [2]: at least 10 times
7 | COC(=O)C1=CO[C@@H](C)[C@H]2CN3CCc4c([nH]c5ccccc45)[C@@H]3C[C@H]12 [ajmalicine] | – | strong inhibitors | –
